Measurements reported in ChEMBL document CHEMBL1201862, “PubChem BioAssay data set” (2004).
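Where inhibition never reached the appropriate level, the endpoint shown equals the highest concentration tested. Otherwise, values were interpolated linearly from a five-concentration, 48-hour dose response in 96-well plates. GI50 marks 50% less growth.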 Active and inactive are the calls of the source. No stated cut-off is given here; in the data, active = GI50 up to about 1.1 µM and inactive = higher.

Key:
Test in all cases: growth of human tumour cells (NCI), 48 h
OVCAR-4 = system: OVCAR-4
RPMI-8226 = system: RPMI-8226
MDA-MB-231 = system: MDA-MB-231
CCRF-CEM = system: CCRF-CEM
Hs-578T = system: Hs-578T
NCI-H522 = system: NCI-H522
786-0 = system: 786-0
HOP-62 = system: HOP-62
UO-31 = system: UO-31
SF-295 = system: SF-295
ACHN = system: ACHN
UACC-62 = system: UACC-62
OVCAR-5 = system: OVCAR-5
MCF7 = system: MCF7
NCI-H226 = system: NCI-H226
SK-MEL-5 = system: SK-MEL-5
SK-OV-3 = system: SK-OV-3
SNB-75 = system: SNB-75
EKVX = system: EKVX
UACC-257 = system: UACC-257

Row | SMILES | GI50 (OVCAR-4) | GI50 (RPMI-8226) | GI50 (MDA-MB-231) | GI50 (CCRF-CEM) | GI50 (Hs-578T) | GI50 (NCI-H522) | GI50 (786-0) | GI50 (HOP-62) | GI50 (UO-31) | GI50 (SF-295) | GI50 (ACHN) | GI50 (UACC-62) | GI50 (OVCAR-5) | GI50 (MCF7) | GI50 (NCI-H226) | GI50 (SK-MEL-5) | GI50 (SK-OV-3) | GI50 (SNB-75) | GI50 (EKVX) | GI50 (UACC-257)
1 | CC(C)=CCNc1ncnc2c1ncn2CCC#N | 45.1 µM (inactive) | > 100 µM (inactive) | > 100 µM (inactive) | > 100 µM (inactive) | > 100 µM (inactive) | > 100 µM (inactive) | > 100 µM (inactive) | > 100 µM (inactive) | > 100 µM (inactive) | > 100 µM (inactive) | > 100 µM (inactive) | > 100 µM (inactive) | > 100 µM (inactive) | > 100 µM (inactive) | > 100 µM (inactive) | > 100 µM (inactive) | > 100 µM (inactive) | 19.8 µM (inactive) | – | –
2 | FC1(F)[Se]C2C3CCC(C3)C2C1(F)F (stereo not given) | > 100 µM (inactive) | > 100 µM (inactive) | > 100 µM (inactive) | – | > 100 µM (inactive) | > 100 µM (inactive) | > 100 µM (inactive) | > 100 µM (inactive) | > 100 µM (inactive) | 35.2 µM (inactive) | > 100 µM (inactive) | > 100 µM (inactive) | > 100 µM (inactive) | > 100 µM (inactive) | > 100 µM (inactive) | > 100 µM (inactive) | > 100 µM (inactive) | 97.3 µM (inactive) | > 100 µM (inactive) | –
3 | Nc1nc(S)nc2snnc12 | – | > 100 µM (inactive) | > 100 µM (inactive) | > 100 µM (inactive) | > 100 µM (inactive) | > 100 µM (inactive) | > 100 µM (inactive) | > 100 µM (inactive) | > 100 µM (inactive) | > 100 µM (inactive) | > 100 µM (inactive) | > 100 µM (inactive) | > 100 µM (inactive) | > 100 µM (inactive) | > 100 µM (inactive) | > 100 µM (inactive) | > 100 µM (inactive) | > 100 µM (inactive) | – | > 100 µM (inactive)
4 | O=C(NCCN1CCOCC1)c1cn2c(ccc3sc4ccccc4c(=O)c32)n1 | – | 8.24 µM (inactive) | 5.35 µM (inactive) | > 10 µM (inactive) | 12.2 µM (inactive) | 10.7 µM (inactive) | 13.6 µM (inactive) | 12.3 µM (inactive) | > 100 µM (inactive) | 11 µM (inactive) | 5.36 µM (inactive) | – | 10.7 µM (inactive) | 7.08 µM (inactive) | 32 µM (inactive) | 9.77 µM (inactive) | – | 24.8 µM (inactive) | > 100 µM (inactive) | 34.6 µM (inactive)
5 | CC(=O)O[C@H]1CC2C(C3CCC(C(C)CCC(N)=O)[C@]31C)[C@H](OC(C)=O)C[C@@H]1CC3(CC[C@]21C)OOC1(CC[C@]2(C)C4C[C@H](OC(C)=O)[C@]5(C)C(C(C)CCC(N)=O)CCC5C4[C@H](OC(C)=O)C[C@@H]2C1)OO3 (stereo not given in full) | 1.83 µM (inactive) | 1.22 µM (inactive) | 1.51 µM (inactive) | – | 2.17 µM (inactive) | 2.18 µM (inactive) | 1.55 µM (inactive) | 2.01 µM (inactive) | 1.13 µM (inactive) | 1.53 µM (inactive) | 1.62 µM (inactive) | – | 1.69 µM (inactive) | 1.58 µM (inactive) | 1.33 µM (inactive) | 1.33 µM (inactive) | 2.06 µM (inactive) | 1.56 µM (inactive) | 1.67 µM (inactive) | 1.49 µM (inactive)
6 | CCCN(CCC)C(=S)N/N=C/c1ccccn1 | < 0.01 µM (active) | < 0.01 µM (active) | < 0.01 µM (active) | < 0.01 µM (active) | 2.96 µM (inactive) | < 0.01 µM (active) | < 0.01 µM (active) | < 0.01 µM (active) | 0.0239 µM (active) | 0.0468 µM (active) | < 0.01 µM (active) | – | < 0.0482 µM (active) | < 0.01 µM (active) | – | < 0.0173 µM (active) | < 0.012 µM (active) | 0.0586 µM (active) | 0.046 µM (active) | < 0.01 µM (active)
7 | CCOC(=O)c1ccc(-n2cnc(-c3ccc([N+](=O)[O-])cc3)c2)cc1 | – | > 100 µM (inactive) | > 100 µM (inactive) | > 100 µM (inactive) | > 100 µM (inactive) | 13.1 µM (inactive) | > 100 µM (inactive) | 94.2 µM (inactive) | > 100 µM (inactive) | > 100 µM (inactive) | > 100 µM (inactive) | > 100 µM (inactive) | > 100 µM (inactive) | 72.9 µM (inactive) | > 100 µM (inactive) | 25.3 µM (inactive) | > 100 µM (inactive) | 40.6 µM (inactive) | > 100 µM (inactive) | > 100 µM (inactive)
8 | COC(=O)CNC(=O)Nc1cc(N2C(=O)ON3C2C(C)(C)N(O)C3(C)C)ccc1C (stereo not given) | > 100 µM (inactive) | – | > 100 µM (inactive) | > 100 µM (inactive) | > 100 µM (inactive) | > 100 µM (inactive) | > 100 µM (inactive) | > 100 µM (inactive) | > 100 µM (inactive) | 55 µM (inactive) | > 100 µM (inactive) | > 100 µM (inactive) | > 100 µM (inactive) | > 100 µM (inactive) | > 100 µM (inactive) | > 100 µM (inactive) | > 100 µM (inactive) | > 100 µM (inactive) | > 100 µM (inactive) | > 100 µM (inactive)
9 | O=C(O)CC[N+]1=CCC(c2ccccc2)(c2ccccc2)O1 | > 100 µM (inactive) | – | > 100 µM (inactive) | – | > 100 µM (inactive) | > 100 µM (inactive) | > 100 µM (inactive) | > 100 µM (inactive) | > 100 µM (inactive) | > 100 µM (inactive) | > 100 µM (inactive) | > 100 µM (inactive) | > 100 µM (inactive) | > 100 µM (inactive) | > 100 µM (inactive) | > 100 µM (inactive) | > 100 µM (inactive) | 44.1 µM (inactive) | > 100 µM (inactive) | > 100 µM (inactive)
10 | C/C(=N\N=C(/S)SCc1ccccc1)c1ccccn1 | < 0.01 µM (active) | < 0.01 µM (active) | < 0.01 µM (active) | < 0.01 µM (active) | 2.62 µM (inactive) | 0.311 µM (active) | < 0.01 µM (active) | < 0.01 µM (active) | 0.0183 µM (active) | 0.514 µM (active) | < 0.01 µM (active) | 0.463 µM (active) | – | < 0.01 µM (active) | < 0.01 µM (active) | 0.0635 µM (active) | < 0.01 µM (active) | 2.92 µM (inactive) | < 0.01 µM (active) | < 0.01 µM (active)
11 | O=C(CNc1ccc(Cl)cc1Cl)NC1C=Cc2ccc(S(=O)(=O)Nc3ccc(Cl)cc3Cl)cc2C1=O (stereo not given) | – | 11 µM (inactive) | > 100 µM (inactive) | 9.18 µM (inactive) | > 100 µM (inactive) | > 100 µM (inactive) | > 100 µM (inactive) | > 100 µM (inactive) | 54.2 µM (inactive) | > 100 µM (inactive) | > 100 µM (inactive) | > 100 µM (inactive) | > 100 µM (inactive) | > 100 µM (inactive) | > 100 µM (inactive) | – | > 100 µM (inactive) | > 100 µM (inactive) | > 100 µM (inactive) | > 100 µM (inactive)
12 | CC1=C(N2CC2)C(=O)c2ccccc2C1=O | 0.918 µM (active) | – | 13.8 µM (inactive) | 1.19 µM (inactive) | 1.36 µM (inactive) | 0.444 µM (active) | 0.871 µM (active) | 1.04 µM (active) | 0.78 µM (active) | 0.618 µM (active) | 0.257 µM (active) | 0.811 µM (active) | 0.402 µM (active) | 0.249 µM (active) | 2.06 µM (inactive) | 0.164 µM (active) | 2.52 µM (inactive) | 0.462 µM (active) | 0.136 µM (active) | 0.327 µM (active)
13 | c1ccc2c3c(c(N4CCOCC4)nc2c1)CCCC3 | 49.9 µM (inactive) | – | 32.1 µM (inactive) | 31.9 µM (inactive) | 76.6 µM (inactive) | 29.7 µM (inactive) | 32.8 µM (inactive) | 92.5 µM (inactive) | 41.2 µM (inactive) | 39.6 µM (inactive) | 41.2 µM (inactive) | 55.7 µM (inactive) | 15.1 µM (inactive) | 29.5 µM (inactive) | 19.6 µM (inactive) | 20.2 µM (inactive) | 86.1 µM (inactive) | 15.4 µM (inactive) | 12.5 µM (inactive) | 40.8 µM (inactive)
14 | CC(C)OCC(O)COc1ccc2ccc(=O)oc2c1 (stereo not given) | > 100 µM (inactive) | > 100 µM (inactive) | > 100 µM (inactive) | > 100 µM (inactive) | > 100 µM (inactive) | > 100 µM (inactive) | > 100 µM (inactive) | > 100 µM (inactive) | > 100 µM (inactive) | > 100 µM (inactive) | > 100 µM (inactive) | > 100 µM (inactive) | > 100 µM (inactive) | > 100 µM (inactive) | – | > 100 µM (inactive) | > 100 µM (inactive) | > 100 µM (inactive) | > 100 µM (inactive) | > 100 µM (inactive)
15 | O=C1NCC2(CCNCC2)N1c1ccccc1 | > 100 µM (inactive) | > 100 µM (inactive) | > 100 µM (inactive) | > 100 µM (inactive) | > 100 µM (inactive) | > 100 µM (inactive) | > 100 µM (inactive) | > 100 µM (inactive) | – | > 100 µM (inactive) | > 100 µM (inactive) | > 100 µM (inactive) | > 100 µM (inactive) | > 100 µM (inactive) | > 100 µM (inactive) | > 100 µM (inactive) | – | > 100 µM (inactive) | > 100 µM (inactive) | > 100 µM (inactive)
